This note sets out measurements from BindingDB's records for doi:10.1016/s0960-894x(01)00635-7 (Instituto De Química Médica (Csic), 2001).

Assay [1] is described as follows: The compound was evaluated for inhibition of HIV-1 mutant […] recombinant reverse transcriptase.
A short description of assay [2]: Effective concentration required to inhibit HIV-1 induced cytopathicity by 50% in CEM cells. For orientation: Protection from cytopathic effect is a common read-out in antiviral testing.

Turning to `Cc1cn([C@@H]2O[C@H](CO[Si](C)(C)C(C)(C)C)[C@@H](O)[C@H]2O[Si](C)(C)C(C)(C)C)c(=O)n(CC(=O)O)c1=O`, the EC50 in assay [1] was determined as 4.5 µM. Still for that read-out and setting: for `Cc1cn([C@@H]2O[C@H](CO[Si](C)(C)C(C)(C)C)[C@@H](O[Si](C)(C)C(C)(C)C)[C@H]2O[Si](C)(C)C(C)(C)C)c(=O)n(CC(=O)OCc2ccccc2)c1=O` the value was above 10 µM. For `Cc1cn([C@@H]2O[C@H](CO[Si](C)(C)C(C)(C)C)[C@@H](O[Si](C)(C)C(C)(C)C)[C@H]2O[Si](C)(C)C(C)(C)C)c(=O)n(CC(=O)O)c1=O`, the EC50 in assay [1] worked out at 32 µM. The same measure, in the same setting: for `Cc1cn([C@H]2C[C@H](O[Si](C)(C)C(C)(C)C)[C@@H](CO[Si](C)(C)C(C)(C)C)O2)c(=O)n(CC(=O)O)c1=O` the value was 5 µM; for `Cc1cn([C@@H]2O[C@H](CO)[C@@H](O)[C@H]2O[Si](C)(C)C(C)(C)C)c(=O)n(CC(=O)O)c1=O`, 20 µM; for `Cc1cn(C2CCC(CO[Si](C)(C)C(C)(C)C)O2)c(=O)n(CC(=O)OCc2ccccc2)c1=O` (stereo unspecified), above 250 µM. In the case of `Cc1cn([C@@H]2O[C@H](CO[Si](C)(C)C(C)(C)C)[C@@H](O[Si](C)(C)C(C)(C)C)[C@H]2O)c(=O)n(CC(=O)OCc2ccccc2)c1=O`, in assay [1], the half-maximal effective concentration (EC50) is above 50 µM. Still for that read-out and setting: for `Cc1cn([C@@H]2O[C@H](CO)[C@@H](O)[C@H]2O[Si](C)(C)C(C)(C)C)c(=O)n(CC(=O)OCc2ccccc2)c1=O` the value was 4 µM. Take `Cc1cn(C2O[C@H](CO[Si](C)(C)C(C)(C)C)[C@@H](O)[C@H]2O)c(=O)n(CC(=O)O)c1=O` (stereo partly specified): in assay [1], the EC50 stood at 117 µM. Same read-out and setting: for `Cc1cn(C2OC(CO[Si](C)(C)C(C)(C)C)CC2O[Si](C)(C)C(C)(C)C)c(=O)n(CC(=O)O)c1=O` (stereo unspecified) [{3-[3-(tert-Butyl-dimethyl-silanyloxy)-5-(tert-butyl-dimethyl-silanyloxymethyl)-tetrahydro-furan-2-yl]-5-methyl-2,6-dioxo-3,6-dihydro-2H-pyrimidin-1-yl}-acetic acid] the value was 4.5 µM.

On to `Cc1cn([C@@H]2O[C@H](CO[Si](C)(C)C(C)(C)C)[C@@H](O[Si](C)(C)C(C)(C)C)[C@H]2O)c(=O)n(CC(=O)O)c1=O` [{3-[4-(tert-Butyl-dimethyl-silanyloxy)-5-(tert-butyl-dimethyl-silanyloxymethyl)-3-hydroxy-tetrahydro-furan-2-yl]-5-methyl-2,6-dioxo-3,6-dihydro-2H-pyrimidin-1-yl}-acetic acid], for which the EC50 in assay [2] came to 1800 nM.

One may read the EC50 as the concentration at which the effect is half-maximal.
